From EPA's ToxValDB 9.5 (doi:10.2903/j.efsa.2010.1931)
In brackets after ≈: the same amount, converted by molar mass.

Assays:
Anas platyrhynchos = conditions: acute; oral; unspecified; mortality
Apis mellifera = conditions: acute; duration: 48 hours; oral; unspecified; mortality
Oryctolagus sp. = conditions: chronic; body weight
Colinus virginianus = conditions: for LD50: acute, oral, mortality
Oncorhynchus mykiss = conditions: mortality
Daphnia magna = conditions: chronic/long-term; duration: 21 days; reproduction
Typhlodromus pyri = test: LR50; higher = less toxic; conditions: acute; duration: 7 days; mortality

With `COCCOc1cccc2c1c(=O)c(C(=O)O)nn2-c1ccc(Cl)cc1` the LD50 (Rattus norvegicus; acute, oral, mortality) was greater than 5000 mg/kg-day, the NOAEL (Rattus norvegicus; chronic, duration: 2 years, mortality) was 9.1 mg/kg-day and the NOAEL (Rattus norvegicus; subchronic, duration: 90 days, oral, histopathology: nonneoplastic) was 16.5 mg/kg-day. It also gave an LD50 (Anas platyrhynchos) greater than 1440 mg/kg-day, an LD50 (Apis mellifera) greater than 100 µg/piece and an NOEL (Oryctolagus sp.) of 125 mg/kg-day. For the same compound, the LD50 (Colinus virginianus; diet) was greater than 642 mg/kg-day, the LD50 (Colinus virginianus) was greater than 1440 mg/kg-day and the NOEL (Colinus virginianus; reproduction developmental) was 119 mg/kg-day. It also gave an LC50 (Tagia sp.; acute, duration: 14 days, mortality) of 20 mg/kg, an NOEC (Tagia sp.; chronic/long-term, reproduction) of 20 mg/kg and an LC50 (Oncorhynchus mykiss; acute, duration: 96 hours) of 570 mg/L (≈ 1520 µM). For the same compound, the NOEC (Oncorhynchus mykiss; chronic/long-term, duration: 28 days) was 100 mg/L, the NOEC (Daphnia magna) was 7.03 mg/L and the LR50 (Typhlodromus pyri) was 1460 g/ha.
